Drawing on ChEMBL document CHEMBL3046963, “Fungicidal Activity of 2-Aminochromone-3-carboxamides” (1990), this text covers Activity and MIC for 27 molecules.

Converted amounts (≈) assume the structure as drawn.

Common to all, as to assay type: functional
The test system of test [1] is Rhizoctonia solani. Kind of test: In vivo fungicidal activity against Rhizoctonia solani in rice seedlings assessed as control of sheath blight disease at 500 ppm by curative foliar treatment.
Test [2] concerns Rhizoctonia solani. The test can be described thus: Fungicidal activity against Rhizoctonia solani by agar dilution method. In general terms: In agar dilution the substance is mixed into plates at graded concentrations.
For test [3], the system named is Pyricularia oryzae. The test can be described thus: Fungicidal activity against Magnaporthe oryzae by agar dilution method.
The next test concerns Bipolaris oryzae. The test can be described thus: Fungicidal activity against Bipolaris oryzae by agar dilution method.
The test system of the next test is Nakataea oryzae. The test can be described thus: Fungicidal activity against Magnaporthe salvinii by agar dilution method.
For test [4], the system named is Fusarium fujikuroi. Kind of test: Fungicidal activity against Fusarium fujikuroi by agar dilution method.
Test [5] concerns Pyricularia oryzae. Kind of test: Fungicidal activity against Magnaporthe oryzae in rice seedlings assessed as control of rice blast at 500 ppm by curative foliar treatment.
In test [6] the test system is Pyricularia oryzae. Kind of test: Fungicidal activity against Magnaporthe oryzae in rice seedlings assessed as control of rice blast at 500 ppm by preventive foliar treatment.
The subject of test [7] is Rhizoctonia solani. Kind of test: In vivo fungicidal activity against Rhizoctonia solani in rice seedlings assessed as control of sheath blight disease at 250 ppm by curative foliar treatment.
Test [8] concerns Fusarium fujikuroi. The test can be described thus: Fungicidal activity against Fusarium fujikuroi assessed as infected rice seedlings in seed disinfection against bakanae disease at 1000 ppm by soaking method.

Take `N#Cc1c(N)oc2ccccc2c1=O`: in the test on Rhizoctonia solani [1], the Activity came to 0%. For the same molecule, the MIC with Rhizoctonia solani [2], in the test with Pyricularia oryzae [3], in the test on Bipolaris oryzae and in the test on Nakataea oryzae was more than 100 µg/mL each time.

As for `NC(=O)c1c(N)oc2ccc(Br)cc2c1=O`, in the test with Rhizoctonia solani [1], the Activity came out at 100%. The MIC (commonly the least concentration at which growth counts as inhibited) is 3.12 µg/mL (≈ 11 µM) with Rhizoctonia solani [2], 1.56 µg/mL (≈ 5.51 µM) in the test on Pyricularia oryzae [3], more than 100 µg/mL against Bipolaris oryzae and 1.56 µg/mL (≈ 5.51 µM) in the test on Nakataea oryzae.

For `C/C(=N/Nc1nc(C)cc(C)n1)c1ccccc1C` [FERIMZONE], the MIC is more than 100 µg/mL in the test on Fusarium fujikuroi [4]; 50 µg/mL (≈ 197 µM) in the test on Rhizoctonia solani [2]; 3.12 µg/mL (≈ 12.3 µM) with Pyricularia oryzae [3]; 25 µg/mL (≈ 98.3 µM) with Bipolaris oryzae; 1.56 µg/mL (≈ 6.13 µM) against Nakataea oryzae. For the same molecule, the Activity in the test with Rhizoctonia solani [1] stood at 100%; in the test with Pyricularia oryzae [5] it was 100%; with Pyricularia oryzae [6], 99%.

In the case of `Cc1ccc2oc(N)c(C(N)=O)c(=O)c2c1`, the MIC in the test on Rhizoctonia solani [2] came out at 6.25 µg/mL (≈ 28.6 µM); against Pyricularia oryzae [3] it was 6.25 µg/mL (≈ 28.6 µM); against Bipolaris oryzae, 25 µg/mL (≈ 115 µM); against Nakataea oryzae it was 6.25 µg/mL (≈ 28.6 µM). Besides, the Activity with Rhizoctonia solani [7] is listed as 100%.

As to `CCCC(C)(C)c1ccc2oc(N)c(C(N)=O)c(=O)c2c1`, the Activity in the test on Rhizoctonia solani [1] is 100%. The MIC was more than 100 µg/mL against Rhizoctonia solani [2], 1.56 µg/mL (≈ 5.41 µM) with Pyricularia oryzae [3], more than 100 µg/mL with Bipolaris oryzae and 6.25 µg/mL (≈ 21.7 µM) against Nakataea oryzae.

As for `O=c1[nH]cnc2oc3ccccc3c(=O)c12`, the Activity in the test on Rhizoctonia solani [1] was found to be 0%. In addition, the MIC against Rhizoctonia solani [2], in the test with Pyricularia oryzae [3], against Bipolaris oryzae and against Nakataea oryzae was more than 100 µg/mL throughout.

As for `CCC(C)c1ccc2oc(N)c(C(N)=O)c(=O)c2c1` (centres undefined), the MIC with Fusarium fujikuroi [4] was more than 100 µg/mL; with Rhizoctonia solani [2] it was 6.25 µg/mL (≈ 24 µM); with Pyricularia oryzae [3] it was 0.78 µg/mL (≈ 3 µM); against Bipolaris oryzae, 25 µg/mL (≈ 96 µM); with Nakataea oryzae, 0.78 µg/mL (≈ 3 µM). Further, the Activity in the test on Rhizoctonia solani [1] worked out at 79%; in the test with Pyricularia oryzae [5] it was 96%; in the test on Pyricularia oryzae [6], 19%; in the test on Fusarium fujikuroi [8], 6.5%.

As for `CCCCc1ccc2oc(N)c(C(N)=O)c(=O)c2c1`, in the test with Rhizoctonia solani [1], the Activity was 90%. For the same molecule, the MIC with Rhizoctonia solani [2] is more than 100 µg/mL; in the test with Pyricularia oryzae [3], 50 µg/mL (≈ 192 µM); with Bipolaris oryzae, more than 100 µg/mL; in the test with Nakataea oryzae, 50 µg/mL (≈ 192 µM).

For the molecule `CCC(C)(C)c1ccc2oc(N)c(C(N)=O)c(=O)c2c1`, the Activity in the test on Rhizoctonia solani [1] amounted to 100%. Also, the MIC with Rhizoctonia solani [2] was more than 100 µg/mL; with Pyricularia oryzae [3], 3.12 µg/mL (≈ 11.4 µM); against Bipolaris oryzae, 50 µg/mL (≈ 182 µM); against Nakataea oryzae it was 6.25 µg/mL (≈ 22.8 µM).

Take `CCC(C)(CC)c1ccc2oc(N)c(C(N)=O)c(=O)c2c1`: the Activity in the test on Rhizoctonia solani [1] was 100%. Also, the MIC is more than 100 µg/mL in the test on Rhizoctonia solani [2], 1.56 µg/mL (≈ 5.41 µM) with Pyricularia oryzae [3], more than 100 µg/mL against Bipolaris oryzae and 3.12 µg/mL (≈ 10.8 µM) against Nakataea oryzae.

For the molecule `NC(=O)c1c(N)oc2c(Cl)cc(Cl)cc2c1=O`, the Activity in the test with Rhizoctonia solani [1] was found to be 100%. The MIC is 100 µg/mL (≈ 366 µM) in the test with Rhizoctonia solani [2], more than 100 µg/mL with Pyricularia oryzae [3], more than 100 µg/mL with Bipolaris oryzae and more than 100 µg/mL against Nakataea oryzae.

`NC(=O)c1c(N)oc2ccc(I)cc2c1=O`: the Activity with Rhizoctonia solani [1] worked out at 100%. Further, the minimum inhibitory concentration (MIC) against Rhizoctonia solani [2] worked out at 12.5 µg/mL (≈ 37.9 µM); against Pyricularia oryzae [3], 3.12 µg/mL (≈ 9.45 µM); in the test with Bipolaris oryzae, 12.5 µg/mL (≈ 37.9 µM); against Nakataea oryzae, 3.12 µg/mL (≈ 9.45 µM).

In the case of `CNc1oc2ccc(C(C)(C)C)cc2c(=O)c1C(N)=O`, the Activity with Rhizoctonia solani [1] turned out to be 100%. Further, the MIC in the test with Rhizoctonia solani [2] was 25 µg/mL (≈ 91.1 µM); in the test on Pyricularia oryzae [3], 1.56 µg/mL (≈ 5.69 µM); against Bipolaris oryzae, 25 µg/mL (≈ 91.1 µM); in the test with Nakataea oryzae, 1.56 µg/mL (≈ 5.69 µM).

With `CNC(=O)Nc1oc2ccc(C(C)(C)C)cc2c(=O)c1C(N)=O`, the Activity in the test on Rhizoctonia solani [1] was found to be 100%. Moreover, the minimum inhibitory concentration (MIC) with Rhizoctonia solani [2] is more than 100 µg/mL; against Pyricularia oryzae [3], 0.78 µg/mL (≈ 2.46 µM); in the test on Bipolaris oryzae it was 100 µg/mL (≈ 315 µM); against Nakataea oryzae, 0.78 µg/mL (≈ 2.46 µM).

On to `CC(=O)Nc1oc2ccccc2c(=O)c1C(N)=O`, for which the Activity in the test on Rhizoctonia solani [1] stood at 90%. Moreover, the MIC in the test on Rhizoctonia solani [2] is 25 µg/mL (≈ 102 µM); in the test with Pyricularia oryzae [3], 50 µg/mL (≈ 203 µM); against Bipolaris oryzae, more than 100 µg/mL; against Nakataea oryzae it was 100 µg/mL (≈ 406 µM).

On to `Cc1oc2ccccc2c(=O)c1C(N)=O`, for which the Activity in the test on Rhizoctonia solani [1] was 0%. Besides, the minimal inhibitory concentration (MIC) in the test on Rhizoctonia solani [2], against Pyricularia oryzae [3], with Bipolaris oryzae and with Nakataea oryzae was more than 100 µg/mL throughout.

Consider `NC(=O)c1c(N)oc2ccc(F)cc2c1=O`, for which the Activity with Rhizoctonia solani [1] is listed as 100%. Further, the MIC against Rhizoctonia solani [2] is 12.5 µg/mL (≈ 56.3 µM); against Pyricularia oryzae [3], 25 µg/mL (≈ 113 µM); against Bipolaris oryzae it was more than 100 µg/mL; in the test on Nakataea oryzae it was 25 µg/mL (≈ 113 µM).

Take `CC(C)c1ccc2oc(N)c(C(N)=O)c(=O)c2c1`: the MIC in the test with Fusarium fujikuroi [4] was more than 100 µg/mL; in the test on Rhizoctonia solani [2], 100 µg/mL (≈ 406 µM); against Pyricularia oryzae [3], 1.56 µg/mL (≈ 6.33 µM); with Bipolaris oryzae it was 100 µg/mL (≈ 406 µM); with Nakataea oryzae, 3.12 µg/mL (≈ 12.7 µM). The Activity with Rhizoctonia solani [1] worked out at 85%; with Pyricularia oryzae [5], 94%; in the test with Pyricularia oryzae [6], 74%; with Fusarium fujikuroi [8] it was 6%.

For the molecule `CCOC(=O)Nc1oc2ccc(C(C)(C)C)cc2c(=O)c1C(N)=O`, in the test with Rhizoctonia solani [1], the Activity is listed as 100%. The MIC with Rhizoctonia solani [2] was 50 µg/mL (≈ 150 µM); against Pyricularia oryzae [3], 25 µg/mL (≈ 75.2 µM); with Bipolaris oryzae, more than 100 µg/mL; in the test on Nakataea oryzae it was 25 µg/mL (≈ 75.2 µM).

For `CC(C)(C)c1ccc2oc3nc[nH]c(=O)c3c(=O)c2c1`, the Activity in the test on Rhizoctonia solani [1] is 0%. The MIC against Rhizoctonia solani [2], in the test on Pyricularia oryzae [3], against Bipolaris oryzae and against Nakataea oryzae was more than 100 µg/mL each time.

As to `CC(C)(C)c1ccc2oc(N)c(C(N)=O)c(=O)c2c1`, the minimal inhibitory concentration (MIC) is 12.5 µg/mL (≈ 48 µM) in the test with Fusarium fujikuroi [4]; 0.78 µg/mL (≈ 3 µM) in the test with Rhizoctonia solani [2]; 0.78 µg/mL (≈ 3 µM) in the test with Pyricularia oryzae [3]; 6.25 µg/mL (≈ 24 µM) with Bipolaris oryzae; 0.78 µg/mL (≈ 3 µM) in the test on Nakataea oryzae. In addition, the Activity in the test on Rhizoctonia solani [1] was determined as 100%; in the test with Pyricularia oryzae [5] it was 96%; in the test on Pyricularia oryzae [6] it was 81%; in the test with Fusarium fujikuroi [8], 3%.

Regarding `CC(=O)Nc1oc2ccc(C(C)(C)C)cc2c(=O)c1C(N)=O`, the Activity with Rhizoctonia solani [1] is 100%. Moreover, the MIC in the test with Rhizoctonia solani [2] turned out to be 6.25 µg/mL (≈ 20.7 µM); against Pyricularia oryzae [3] it was 3.12 µg/mL (≈ 10.3 µM); in the test with Bipolaris oryzae, 100 µg/mL (≈ 331 µM); in the test with Nakataea oryzae it was 6.25 µg/mL (≈ 20.7 µM).

Take `CC(C)C(C)(C)c1ccc2oc(N)c(C(N)=O)c(=O)c2c1`: in the test with Rhizoctonia solani [1], the Activity amounted to 100%. Further, the MIC against Rhizoctonia solani [2] was more than 100 µg/mL; against Pyricularia oryzae [3], 3.12 µg/mL (≈ 10.8 µM); in the test on Bipolaris oryzae it was more than 100 µg/mL; against Nakataea oryzae it was 6.25 µg/mL (≈ 21.7 µM).

Take `NC(=O)c1c(N)oc2c(Br)cc(Br)cc2c1=O`: the Activity with Rhizoctonia solani [1] is given as 76%. For the same molecule, the MIC against Rhizoctonia solani [2], with Pyricularia oryzae [3], with Bipolaris oryzae and in the test with Nakataea oryzae was more than 100 µg/mL each time.

Take `NC(=O)c1c(N)oc2ccc(Cl)cc2c1=O`: the MIC against Rhizoctonia solani [2] is 6.25 µg/mL (≈ 26.2 µM); against Pyricularia oryzae [3], 3.12 µg/mL (≈ 13.1 µM); in the test on Bipolaris oryzae it was more than 100 µg/mL; against Nakataea oryzae it was 12.5 µg/mL (≈ 52.4 µM). Also, the Activity in the test on Rhizoctonia solani [7] is on record as 96%.

Take `CCc1ccc2oc(N)c(C(N)=O)c(=O)c2c1`: the MIC in the test with Rhizoctonia solani [2] stood at 3.25 µg/mL (≈ 14 µM); in the test on Pyricularia oryzae [3], 0.78 µg/mL (≈ 3.36 µM); in the test on Bipolaris oryzae it was 25 µg/mL (≈ 108 µM). In addition, the Activity in the test with Rhizoctonia solani [7] is reported as 90%.

Regarding `NC(=O)c1c(N)oc2ccccc2c1=O`, the minimal inhibitory concentration (MIC) is 12.5 µg/mL (≈ 61.2 µM) with Rhizoctonia solani [2], 25 µg/mL (≈ 122 µM) against Pyricularia oryzae [3], more than 100 µg/mL against Bipolaris oryzae and 12.5 µg/mL (≈ 61.2 µM) against Nakataea oryzae. Further, the Activity in the test on Rhizoctonia solani [7] turned out to be 100%.
